Counter-ions that a name gives are not always drawn. Like-named read-outs stand apart in the source and are kept apart here.
Assays:
[1] = biological target: T1, recombinant thioredoxin reductase 1 (TrxR1) (Homo sapiens, UniProt Q16881); assay: Inhibition of recombinant TrxR1 (DTNB assay); assay type: biochemical
T1 sequence (Q16881 1-649): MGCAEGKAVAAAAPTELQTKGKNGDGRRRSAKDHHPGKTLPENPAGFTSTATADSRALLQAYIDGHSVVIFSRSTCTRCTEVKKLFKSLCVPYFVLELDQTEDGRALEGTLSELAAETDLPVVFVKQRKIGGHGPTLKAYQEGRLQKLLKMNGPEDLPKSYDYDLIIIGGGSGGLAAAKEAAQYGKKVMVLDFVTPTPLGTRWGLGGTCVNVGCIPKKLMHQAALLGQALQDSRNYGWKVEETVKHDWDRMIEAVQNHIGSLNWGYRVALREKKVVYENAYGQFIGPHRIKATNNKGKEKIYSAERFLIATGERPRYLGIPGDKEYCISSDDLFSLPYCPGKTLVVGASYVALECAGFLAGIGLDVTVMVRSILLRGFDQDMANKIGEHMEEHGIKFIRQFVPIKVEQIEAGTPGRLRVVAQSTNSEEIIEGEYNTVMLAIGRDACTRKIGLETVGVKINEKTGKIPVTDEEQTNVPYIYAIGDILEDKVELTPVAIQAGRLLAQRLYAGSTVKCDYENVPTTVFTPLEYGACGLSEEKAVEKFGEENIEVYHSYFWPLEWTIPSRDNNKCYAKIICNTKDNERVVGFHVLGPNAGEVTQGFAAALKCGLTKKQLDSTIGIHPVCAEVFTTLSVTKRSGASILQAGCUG
In short: (§1)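 Human TrxR1 (15 nM) or GR (2 nM) preincubated 15 min with compound, 250 μM NADPH, 0.1 mg/ml BSA in 50 mM Tris pH 7.5, 2 mM EDTA, 1% DMSO. Reaction started with 2.5 mM DTNB (TrxR1, A412) or 1 mM GSSG (GR, A340). Percent activity relative to DMSO and no-enzyme blanks.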

[2] = biological target: T2, gluthathione reductase (GR) (Homo sapiens, UniProt P00390); assay: Inhibition of recombinant GR (GSSG assay); assay type: biochemical
T2 sequence (P00390 44-522): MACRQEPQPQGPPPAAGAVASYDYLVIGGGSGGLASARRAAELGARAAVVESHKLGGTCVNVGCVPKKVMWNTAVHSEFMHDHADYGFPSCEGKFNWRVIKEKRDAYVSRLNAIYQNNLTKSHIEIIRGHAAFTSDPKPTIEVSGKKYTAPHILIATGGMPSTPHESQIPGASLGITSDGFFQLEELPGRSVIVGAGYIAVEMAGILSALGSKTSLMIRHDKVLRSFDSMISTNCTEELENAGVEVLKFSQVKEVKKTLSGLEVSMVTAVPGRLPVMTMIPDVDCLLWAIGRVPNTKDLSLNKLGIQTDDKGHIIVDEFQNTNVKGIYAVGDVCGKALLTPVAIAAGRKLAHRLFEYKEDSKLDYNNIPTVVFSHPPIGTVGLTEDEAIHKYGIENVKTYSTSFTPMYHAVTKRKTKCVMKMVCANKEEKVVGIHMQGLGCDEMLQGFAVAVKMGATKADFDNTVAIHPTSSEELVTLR
In short: as §1

[3] = Biological Example 4, assays of Biological Example 1, read-out: TrxR Inhibition
[4] = Biological Example 4, assays of Biological Example 1

SMILES	IC50 [1, 3] [nM]	IC50 [2, 4] [nM]	IC50 ([1]; Biological Example 1, 15 nM TrxR1, 250 μM NADPH, 15 minutes incubation, read-out: TrxR inhibition) [nM]	IC50 ([2]; Biological Example 1, 2 nM GR, 250 μM NADPH, 15 minutes incubation) [nM]
Cc1cc(CN2C3C=CC(=O)C2C2C(=O)N(c4ccccc4)C(=O)C23)ccc1F (stereo not drawn) [Example 37, exo-11-(4-Fluoro-3-methylbenzyl)-4-phenyl-4,11-diazatricyclo[5.3.1.0^2,6]-undec-9-ene-3,5,8-trione Trifluoroacetate]	930	> 100000		
COC(=O)c1cccc(CN2[C@@H]3C(=O)C=C[C@H]2[C@H]2C(=O)N(c4ccccc4)C(=O)[C@H]23)c1 (relative stereo) [Example 45, endo-Methyl 3-((3,5,10-trioxo-4-phenyl-4,11-diazatricyclo[5.3.1.0^2,6]undec-8-en-11-yl)methyl)benzoate]	1400	> 100000		
O=C1C=CC2C3C(=O)N(c4ccccc4)C(=O)C3C1N2Cc1cc(F)cc(F)c1 (centres unmarked) [Example 43, 11-(3,5-Difluorobenzyl)-4-phenyl-4,11-diazatricyclo[5.3.1.0^2,6]undec-9-ene-3,5,8-trione Trifluoroacetate]	1590	91700		

The remaining molecules from weak to strong by IC50 [1, 3], led by results:

IC50 [1, 3] [nM]	IC50 [2, 4] [nM]	IC50 ([1]; Biological Example 1, 15 nM TrxR1, 250 μM NADPH, 15 minutes incubation, read-out: TrxR inhibition) [nM]	IC50 ([2]; Biological Example 1, 2 nM GR, 250 μM NADPH, 15 minutes incubation) [nM]	SMILES
3630	> 100000			CCN1C(=O)C2C(C1=O)[C@@H]1C=CC(=O)[C@H]2N1Cc1cccc(C)c1 (mixture of isomers) [Example 48, endo-4-Ethyl-11-(3-methylbenzyl)-4,11-diazatricyclo[5.3.1.0^2,6]undec-9-ene-3,5,8-trione Trifluoroacetate]
1440	> 100000			Cc1cccc(CN2[C@@H]3C(=O)C=C[C@H]2[C@@H]2C(=O)N(c4ccccc4O)C(=O)[C@@H]23)c1 (relative stereo) [Example 56, exo-4-(2-Hydroxyphenyl)-11-(3-methylbenzyl)-4,11-diazatricyclo[5.3.1.0^2,6]-undec-9-ene-3,5,8-trione Trifluoroacetate]
1300	> 100000	750	> 100000	Cc1cccc(CN2[C@@H]3C(=O)C=C[C@H]2[C@@H]2C(=O)N(c4cccc(O)c4)C(=O)[C@@H]23)c1 (relative stereo) [Example 58, exo-4-(3-Hydroxyphenyl)-11-(3-methylbenzyl)-4,11-diazatricyclo[5.3.1.0^2,6]undec-9-ene-3,5,8-trione Trifluoroacetate]

From patent US10881653B2, “Tricyclic compounds and their use in the treatment of cancer” (The United States of America, as represented by the …, priority 2015, dated 2021)
